Drawing on patent US9150577B2, “Heterocyclic compounds containing an indole core” (Boehringer Ingelheim International GmbH, priority 2009, dated 2015), this text covers IC50 for 33 compounds.

Structures are written as SMILES.

Chain of Human RSK2 (P51812 whole entry): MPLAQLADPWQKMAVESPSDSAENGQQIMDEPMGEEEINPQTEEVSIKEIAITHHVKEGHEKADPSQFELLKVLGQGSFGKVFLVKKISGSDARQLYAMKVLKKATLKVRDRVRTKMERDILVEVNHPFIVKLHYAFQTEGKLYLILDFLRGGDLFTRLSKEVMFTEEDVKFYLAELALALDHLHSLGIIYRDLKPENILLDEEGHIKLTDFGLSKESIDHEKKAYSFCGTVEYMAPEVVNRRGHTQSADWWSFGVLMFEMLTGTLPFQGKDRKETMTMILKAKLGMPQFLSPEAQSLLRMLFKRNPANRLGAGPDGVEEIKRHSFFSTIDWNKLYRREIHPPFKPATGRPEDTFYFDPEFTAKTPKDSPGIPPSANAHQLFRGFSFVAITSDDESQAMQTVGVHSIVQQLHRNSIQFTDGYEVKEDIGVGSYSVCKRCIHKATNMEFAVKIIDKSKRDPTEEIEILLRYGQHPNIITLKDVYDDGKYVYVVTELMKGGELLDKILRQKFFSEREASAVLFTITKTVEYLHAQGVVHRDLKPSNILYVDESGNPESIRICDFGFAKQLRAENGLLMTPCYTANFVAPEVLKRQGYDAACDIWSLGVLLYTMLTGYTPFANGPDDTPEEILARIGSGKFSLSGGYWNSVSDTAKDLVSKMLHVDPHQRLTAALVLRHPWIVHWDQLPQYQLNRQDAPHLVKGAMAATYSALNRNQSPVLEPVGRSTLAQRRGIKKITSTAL

This assay has as its target Human RSK2 (Homo sapiens (Human), UniProt P51812). Briefly: Human RSK2 assay (Kinase Glo Plus, residual ATP).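 Also: recombinant human RSK2 phosphorylating a substrate peptide, 90 min at 28 °C, leftover ATP read by luminescence, RLU scaled between no-kinase background and uninhibited kinase controls, 4-parameter fit.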 In kind it is biochemical. A general note: Kinase-Glo reads ATP consumption through a luciferase reaction.
With `CN(C)CCCn1c(NC(=O)c2ccc3cc4n(c3c2)CC2(CCOCC2)CNC4=O)nc2ccccc21` [Example 95, N-{1-[3-(dimethylamino)propyl]-1H-benzimidazol-2-yl}-1-oxo-2,2′,3,3′,5′,6′-hexahydro-1H-spiro[1,4-diazepino[1,2-a]indole-4,4′-pyran]-8-carboxamide], the IC50 (usually the concentration needed to halve the response being measured) amounted to 16 nM.

Regarding `Cc1cc(NC(=O)c2ccc3cc4n(c3c2)C(C)(C)CNC4=O)no1` [Example 126, 4,4-dimethyl-N-(5-methyl-1,2-oxazol-3-yl)-1-oxo-1,2,3,4-tetrahydropyrazino[1,2-a]indole-7-carboxamide], the IC50 was found to be 36 nM. For the compound `Cc1cc(NC(=O)c2ccc3cc4n(c3c2)CC(F)(F)CNC4=O)no1` [Example 167, 4,4-difluoro-N-(5-methyl-1,2-oxazol-3-yl)-1-oxo-2,3,4,5-tetrahydro-1H-[1,4]diazepino[1,2-a]indole-8-carboxamide], the IC50 turned out to be 670 nM.

For the compound `O=C(Nc1nc2ccccc2n1CC(F)(F)F)c1ccc2cc3n(c2c1)CCCNC3=O` [Example 87, 1-oxo-N-[1-(2,2,2-trifluoroethyl)-1H-benzimidazol-2-yl]-2,3,4,5-tetrahydro-1H-[1,4]diazepino[1,2-a]indole-8-carboxamide], the IC50 turned out to be 4.8 nM.

`Cn1ncc2cc(NC(=O)c3ccc4cc5n(c4c3)CCCNC5=O)cnc21` [Example 20, N-(1-methyl-1H-pyrazolo[3,4-b]pyridin-5-yl)-1-oxo-2,3,4,5-tetrahydro-1H-[1,4]diazepino[1,2-a]indole-8-carboxamide]: the IC50 was determined as 87 nM. The value for `CC(C)n1ncc2cc(NC(=O)c3ccc4cc5n(c4c3)CCCNC5=O)cnc21` [Example 19, 1-oxo-N-[1-(propan-2-yl)-1H-pyrazolo[3,4-b]pyridin-5-yl]-2,3,4,5-tetrahydro-1H-[1,4]diazepino[1,2-a]indole-8-carboxamide] was 53 nM.

As to `C[C@H]1NC(=O)c2cc3ccc(C(=O)Nc4cnn(C)c4)cc3n2[C@H]1C` (relative stereo) [Example 21, cis-3,4-dimethyl-N-(1-methyl-1H-pyrazol-4-yl)-1-oxo-1,2,3,4-tetrahydropyrazino[1,2-a]indole-7-carboxamide], the IC50 amounted to 4.3 nM.

Consider `Cn1cc(NC(=O)c2ccc3cc4n(c3c2)C(C)(C)CNC4=O)nc1C(=O)NC1CCCC1` [Example 233, N-[2-(cyclopentylcarbamoyl)-1-methyl-1H-imidazol-4-yl]-4,4-dimethyl-1-oxo-1,2,3,4-tetrahydropyrazino[1,2-a]indole-7-carboxamide], for which the IC50 worked out at 3.7 nM. On to `O=C(Nc1cc(-c2ccccc2)[nH]n1)c1ccc2cc3n(c2c1)CCCNC3=O` [Example 218, 1-oxo-N-(5-phenyl-1H-pyrazol-3-yl)-2,3,4,5-tetrahydro-1H-[1,4]diazepino[1,2-a]indole-8-carboxamide], for which the IC50 amounted to 40 nM. For `CC(C)n1ccc(NC(=O)c2ccc3cc4n(c3c2)CCCNC4=O)n1` [Example 13, 1-oxo-N-[1-(propan-2-yl)-1H-pyrazol-3-yl]-2,3,4,5-tetrahydro-1H-[1,4]diazepino[1,2-a]indole-8-carboxamide] the value was 1600 nM; for `O=C(Nc1cnn(C2CCOC2)c1)c1ccc2cc3n(c2c1)CCCNC3=O` (stereo not drawn) [Example 26, 1-oxo-N-[1-(tetrahydrofuran-3-yl)-1H-pyrazol-4-yl]-2,3,4,5-tetrahydro-1H-[1,4]diazepino[1,2-a]indole-8-carboxamide], 27 nM. `Cn1cc(NC(=O)c2ccc3cc4n(c3c2)CC2(CCC2)CNC4=O)cn1` [Example 24, N-(1-methyl-1H-pyrazol-4-yl)-1′-oxo-2′,3′-dihydro-1′H-spiro[cyclobutane-1,4′-[1,4]diazepino[1,2-a]indole]-8′-carboxamide]: the IC50 worked out at 320 nM. For the compound `O=C(Nc1nnc(Cc2ccccc2)s1)c1ccc2cc3n(c2c1)CCCNC3=O` [Example 117, N-(5-benzyl-1,3,4-thiadiazol-2-yl)-1-oxo-2,3,4,5-tetrahydro-1H-[1,4]diazepino[1,2-a]indole-8-carboxamide], the IC50 was determined as 98 nM. For `COc1ccnc(NC(=O)c2ccc3cc4n(c3c2)CCCNC4=O)c1` [Example 206, N-(4-methoxypyridin-2-yl)-1-oxo-2,3,4,5-tetrahydro-1H-[1,4]diazepino[1,2-a]indole-8-carboxamide] the value was 96 nM; for `CC(C)(C)n1cc(NC(=O)c2ccc3cc4n(c3c2)CCCNC4=O)cn1` [Example 191, N-(1-tert-butyl-1H-pyrazol-4-yl)-1-oxo-2,3,4,5-tetrahydro-1H-[1,4]diazepino[1,2-a]indole-8-carboxamide], 48 nM; for `CN(C)CCCn1c(NC(=O)c2ccc3cc4n(c3c2)C(C)(C)CNC4=O)nc2ccccc21` [Example 98, N-{1-[3-(dimethylamino)propyl]-1H-benzimidazol-2-yl}-4,4-dimethyl-1-oxo-1,2,3,4-tetrahydropyrazino[1,2-a]indole-7-carboxamide], 0.38 nM. For `Cc1nn(C)c2ncc(NC(=O)c3ccc4cc5n(c4c3)CCCNC5=O)cc12` [Example 189, N-(1,3-dimethyl-1H-pyrazolo[3,4-b]pyridin-5-yl)-1-oxo-2,3,4,5-tetrahydro-1H-[1,4]diazepino[1,2-a]indole-8-carboxamide] the value was 1300 nM; for `C[C@@H]1NC(=O)c2cc3ccc(C(=O)Nc4cnn(Cc5ccccc5)c4)cc3n2[C@H]1C` (relative stereo) [Example 30, N-(1-benzyl-1H-pyrazol-4-yl)-trans-3,4-dimethyl-1-oxo-1,2,3,4-tetrahydropyrazino[1,2-a]indole-7-carboxamide], 10 nM; for `Cc1ccccc1Cn1cc(NC(=O)c2ccc3cc4n(c3c2)CCCNC4=O)cn1` [Example 34, N-[1-(2-methylbenzyl)-1H-pyrazol-4-yl]-1-oxo-2,3,4,5-tetrahydro-1H-[1,4]diazepino[1,2-a]indole-8-carboxamide], 7.9 nM. The value for `N#Cc1ccccc1NC(=O)c1ccc2cc3n(c2c1)CCCNC3=O` [Example 217, N-(2-cyanophenyl)-1-oxo-2,3,4,5-tetrahydro-1H-[1,4]diazepino[1,2-a]indole-8-carboxamide] was 7000 nM; that for `CC(C)n1ncc2cc(NC(=O)c3ccc4cc5n(c4c3)[C@@H](C)[C@@H](C)NC5=O)cnc21` (relative stereo) [Example 18, cis-3,4-dimethyl-1-oxo-N-[1-(propan-2-yl)-1H-pyrazolo[3,4-b]pyridin-5-yl]-1,2,3,4-tetrahydropyrazino[1,2-a]indole-7-carboxamide] was 8.1 nM.

As for `CC(C)n1c(NC(=O)c2ccc3cc4n(c3c2)[C@@H](C)[C@@H](C)CNC4=O)nc2ccccc21` (relative stereo) [Example 70, cis-4,5-dimethyl-1-oxo-N-[1-(propan-2-yl)-1H-benzimidazol-2-yl]-2,3,4,5-tetrahydro-1H-[1,4]diazepino[1,2-a]indole-8-carboxamide], the IC50 is 1.8 nM. The value for `Cn1ccnc1NC(=O)c1ccc2cc3n(c2c1)CCCNC3=O` [Example 109, N-(1-methyl-1H-imidazol-2-yl)-1-oxo-2,3,4,5-tetrahydro-1H-[1,4]diazepino[1,2-a]indole-8-carboxamide] was 2200 nM. As for `O=C(Nc1ccccc1Cl)c1ccc2cc3n(c2c1)CCCNC3=O` [Example 216, N-(2-chlorophenyl)-1-oxo-2,3,4,5-tetrahydro-1H-[1,4]diazepino[1,2-a]indole-8-carboxamide], the IC50 was 6000 nM. For `CC(C)c1ccc(NC(=O)c2ccc3cc4n(c3c2)CCCNC4=O)cc1` [Example 146, 1-oxo-N-[4-(propan-2-yl)phenyl]-2,3,4,5-tetrahydro-1H-[1,4]diazepino[1,2-a]indole-8-carboxamide] the value was 89 nM; for `CC1CCNC(=O)c2cc3ccc(C(=O)Nc4cccnc4)cc3n21` (stereo not drawn) [Example 10, 5-methyl-1-oxo-N-(pyridin-3-yl)-2,3,4,5-tetrahydro-1H-[1,4]diazepino[1,2-a]indole-8-carboxamide], 41 nM. With `C[C@@H]1CNC(=O)c2cc3ccc(C(=O)Nc4cccnc4)cc3n2[C@H]1C` (relative stereo) [Example 151, Trans-4,5-dimethyl-1-oxo-N-(pyridin-3-yl)-2,3,4,5-tetrahydro-1H-[1,4]diazepino[1,2-a]indole-8-carboxamide], the IC50 was 1100 nM. The value for `CCn1c(NC(=O)c2ccc3cc4n(c3c2)C(C)(C)CNC4=O)nc2ccccc21` [Example 82, N-(1-ethyl-1H-benzimidazol-2-yl)-4,4-dimethyl-1-oxo-1,2,3,4-tetrahydropyrazino[1,2-a]indole-7-carboxamide] was 0.25 nM; that for `Cc1cc(NC(=O)c2ccc3cc4n(c3c2)CC2(CCNCC2)CNC4=O)no1` [Example 237, N-(5-methyl-1,2-oxazol-3-yl)-1-oxo-2,3-dihydro-1H-spiro[1,4-diazepino[1,2-a]indole-4,4′-piperidine]-8-carboxamide] was 6300 nM; that for `Cc1cc(NC(=O)c2ccc3cc4n(c3c2)[C@@H](C)CCNC4=O)no1` [Example 173, (5S)-5-methyl-N-(5-methyl-1,2-oxazol-3-yl)-1-oxo-2,3,4,5-tetrahydro-1H-[1,4]diazepino[1,2-a]indole-8-carboxamide] was 1200 nM. The value for `CC1CCNC(=O)c2cc3ccc(C(=O)Nc4cnn(C)c4)cc3n21` (stereo not drawn) [Example 164, 5-methyl-N-(1-methyl-1H-pyrazol-4-yl)-1-oxo-2,3,4,5-tetrahydro-1H-[1,4]diazepino[1,2-a]indole-8-carboxamide] was 10 nM; that for `CC(C)(O)Cn1c(NC(=O)c2ccc3cc4n(c3c2)CC(C)(C)CNC4=O)nc2ccccc21` [Example 86, N-[1-(2-hydroxy-2-methylpropyl)-1H-benzimidazol-2-yl]-4,4-dimethyl-1-oxo-2,3,4,5-tetrahydro-1H-[1,4]diazepino[1,2-a]indole-8-carboxamide] was 5.9 nM. On to `Cc1cc(NC(=O)c2ccc3cc4n(c3c2)CCCNC4=O)n[nH]1` [Example 219, N-(5-methyl-1H-pyrazol-3-yl)-1-oxo-2,3,4,5-tetrahydro-1H-[1,4]diazepino[1,2-a]indole-8-carboxamide], for which the IC50 was determined as 68 nM.
